Measurements published in patent US5276023A, “19-nor-steroid esters” (Roussel Uclaf, priority 1989, dated 1994).

What was measured:
Androgen receptor = biological target: T1, Androgen receptor (Rattus norvegicus, UniProt P15207); assay: relative bond affinity for the androgen receptor of rat's prostate; assay type: binding; conditions: tritiated testosterone, RBA=100 (CH)/(CX), reference cold testosterone; for relative bond affinity (RBA), Androgen 0,5H: half an hour incubation at 0° C.; for relative bond affinity (RBA), Androgen: incubation at 0° C.
T1 construct: The prostates were removed, weighed and homogenized; from tissue; host or cells: prostate cytosol (105,000 g supernatant) of castrated male rats
T1 sequence (P15207 1-902): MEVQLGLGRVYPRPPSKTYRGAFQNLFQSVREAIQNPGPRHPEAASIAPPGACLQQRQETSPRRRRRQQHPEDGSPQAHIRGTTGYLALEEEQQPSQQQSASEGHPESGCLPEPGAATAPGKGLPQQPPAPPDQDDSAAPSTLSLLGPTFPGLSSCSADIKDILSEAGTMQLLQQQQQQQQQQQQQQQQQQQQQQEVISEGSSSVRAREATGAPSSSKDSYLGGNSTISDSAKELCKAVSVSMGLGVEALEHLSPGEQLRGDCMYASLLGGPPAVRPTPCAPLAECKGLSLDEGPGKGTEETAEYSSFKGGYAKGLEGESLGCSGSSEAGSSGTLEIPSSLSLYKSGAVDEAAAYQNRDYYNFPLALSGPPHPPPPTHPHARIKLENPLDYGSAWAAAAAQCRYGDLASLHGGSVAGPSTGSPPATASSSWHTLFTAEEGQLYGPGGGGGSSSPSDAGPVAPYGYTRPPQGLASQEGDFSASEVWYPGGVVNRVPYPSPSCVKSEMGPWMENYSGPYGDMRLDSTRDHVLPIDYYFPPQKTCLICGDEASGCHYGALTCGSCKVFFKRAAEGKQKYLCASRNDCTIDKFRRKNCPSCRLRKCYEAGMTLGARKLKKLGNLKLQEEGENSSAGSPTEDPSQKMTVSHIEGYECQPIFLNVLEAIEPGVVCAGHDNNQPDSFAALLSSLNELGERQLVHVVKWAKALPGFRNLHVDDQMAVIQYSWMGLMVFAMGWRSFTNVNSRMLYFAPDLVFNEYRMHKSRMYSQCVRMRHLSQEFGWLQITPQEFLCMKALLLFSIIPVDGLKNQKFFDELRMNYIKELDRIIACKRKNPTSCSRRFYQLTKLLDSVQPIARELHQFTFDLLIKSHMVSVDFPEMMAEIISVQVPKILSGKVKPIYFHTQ
Method: 1) Measurement of the relative bond affinity for the receptors of steroid hormones:
Androgen receptor of rat's prostate
Male rats weighing 160 to 200 g were castrated and 24 hours after the castration, the animals were killed. The prostates were removed, weighed and homogenized at 0° C. using a Potter teflon-flask in a (TSDPM) 10 mM Tris, 0.25M saccharose, […] phenylmethanesulfonylfluoride, 20 mM molybdate, 2 mM dithiothreitol, HCl pH 7.4 buffer (1 g of tissue per 5 ml of TSDPM). The homogenate was ultracentrifuged (105,000 g×60 mn) at 0° C. and aliquots of the supernatant "cytosol", were incubated at 0° C. with a constant concentration in the presence of increasing concentrations (0-1000 nM) of cold testosterone or of the product under test. […]
Calculation of the relative bond affinity:
The calculation of the relative bond affinity (RBA) was identical for all receptors. The following two curves were drawn: the percentage of bonded tritiated hormone B/T as a function of the logarithm of the concentration of the cold reference hormone and B/T as a function of the logarithm of the concentration of the cold product under test. The straight line of the equation:
B max=Percentage of bonded tritiated hormone for an incubation of this tritiated hormone at the concentration (T).
B min=Percentage of bonded tritiated hormone for an incubation of this tritiated hormone at the concentration (T) in the presence of a great excess of cold hormone (2500×10^-9 M).
The intersections of the straight line I50 and the curves allowed the evaluation of the concentrations of the cold reference hormone (CH) and of the cold product under test (CX) which inhibited by 50% the bonding of the tritiated hormone on the receptor. The relative bond affinity (RBA) of the product under test was determined by the equation RBA=100 (CH)/(CX)

rat thymocytes = assay: anti-glucocorticoid activity vis-a-vis dexamethasone: incorporation of uridine in rat thymocytes; assay type: cell-based; conditions: for inhibition at 1 µM / inhibition at 0.1 µM / inhibition at 0.01 µM: Rattus norvegicus, Thymocyte, 3 h; for inhibition at 1 µM / inhibition at 0.1 µM / inhibition at 0.01 µM / % of inhibition of the incorporation of uridine: with 5×10^-8 M dexamethasone, 3 hours at 37° C.; for antiglucocorticoid activity: conclusion in words from the thymocyte study
Source text: 2) Anti-glucocorticoid activity vis-a-vis dexamethasone
Incorporation of uridine in rat thymocytes
Glucocorticoids cause an inhibition of the incorporation of nucleosides in lymphoid tissue and the measurement of the incorporation of radio-active uridine in the thymocytes in the presence of a product under test allow its glucocorticoid activity to be evaluated.
It was in accordance with the technique described by Dausse et al (3). The thymus of a suprarenalectomized rat weighing 160 to 180 g was removed, shredded and homogenized slowly using a teflon-flask homogenizer in Hanks solution. The cellular suspension obtained was filtered on gauze and then centrifuged at 800 g×10 mn. A new centrifugation was then carried out at 800 g×10 mn. The deposit was suspended in a nutritive medium (M.E.M. Gibco) and the cellular concentration was adjusted to approximately 20×10^6 cells per ml. Aliquots of 250 ul were then incubated under carbogen for 3 hours at 37° C. with 5×10^-8 M of dexamethasone in the presence or not of increasing concentrations of product (10^-8 M to 10^-6 M). 0.1 uCi of tritiated uridine was then added to each incubate and the incubation was continued for one hour. The incubates were then cooled and 1 ml of a cold solution of trichloracetic acid (TCA) at 5 % weight/volume was added. The precipitates were collected on Whatman GF/C filters and were washed with 4×2 ml of 5% iced TCA. The radioactivity retained on the filters (representing the tritiated uridine incorporated in the thymocytes) was measured using a liquid scintillation spectrometer.

CN(C)c1ccc([C@H]2C[C@@]3(C)[C@@H](CC[C@@]3(O)/C=C\COC(=O)CCC(=O)O)[C@@H]3CCC4=CC(=O)CCC4=C32)cc1 [Example 2, Sodium (Z)-3-[11β-[4-dimethylamino-phenyl]-Δ^4,9-estradien-17β-ol-3-one-17α-yl]-2-propenyl succinate]
relative bond affinity (RBA), Androgen 0,5H (Androgen receptor): 12 | relative bond affinity (RBA), Androgen (Androgen receptor): 39 | inhibition at 1 µM (rat thymocytes; product at 10^-6 M): 68% | inhibition at 0.1 µM (rat thymocytes; product at 10^-7 M): 1% | inhibition at 0.01 µM (rat thymocytes; product at 10^-8 M): 0%

CN(C)c1ccc([C@H]2C[C@@]3(C)[C@@H](CC[C@@]3(O)C#CCOC(=O)CCC(=O)O)[C@@H]3CCC4=CC(=O)CCC4=C32)cc1 [Example 4, Sodium and 3-[11β-[4-dimethylamino-phenyl]-Δ^4,9-estradien-17β-ol-3-one-17α-yl]-2-propynyl succinate]
relative bond affinity (RBA), Androgen 0,5H (Androgen receptor): 5,1 | relative bond affinity (RBA), Androgen (Androgen receptor): 2,8 | inhibition at 1 µM (rat thymocytes; product at 10^-6 M): 22% | inhibition at 0.1 µM (rat thymocytes; product at 10^-7 M): 2.5% | inhibition at 0.01 µM (rat thymocytes; product at 10^-8 M): 0%

CC#C[C@]1(OC(=O)CCC(=O)O)CC[C@H]2[C@@H]3CCC4=CC(=O)CCC4=C3[C@@H](c3ccc(N(C)C)cc3)C[C@@]21C [Example 5, 11β-[4-dimethylamino-phenyl]-17-(1-propynyl)-Δ^4,9-estradien-3-one-17β-yl acid succinate]
relative bond affinity (RBA), Androgen 0,5H (Androgen receptor; listed as EX. 5): 0,6 | relative bond affinity (RBA), Androgen (Androgen receptor; listed as EX. 5): 1 | antiglucocorticoid activity (rat thymocytes): good | % of inhibition of the incorporation of uridine (rat thymocytes; product at 10^-6 M): 135% | % of inhibition of the incorporation of uridine (rat thymocytes; product at 10^-7 M): 100% | % of inhibition of the incorporation of uridine (rat thymocytes; product at 10^-8 M): 28%

CC#C[C@]1(OC(=O)CCC(=O)O)CC[C@H]2[C@@H]3CCC4=CC(=O)CCC4=C3[C@@H](c3ccc(N(C)C)cc3)C[C@@]21C [Example 6, Sodium 11β-[4-dimethylamino-phenyl]17α-(1-propynyl)-Δ^4,9 - estradien-3-one-17β-yl succinate]
relative bond affinity (RBA), Androgen 0,5H (Androgen receptor; listed as EX. 6): 2,2 | relative bond affinity (RBA), Androgen (Androgen receptor; listed as EX. 6): 4,1 | % of inhibition of the incorporation of uridine (rat thymocytes; product at 10^-6 M): 78% | % of inhibition of the incorporation of uridine (rat thymocytes; product at 10^-7 M): 27% | % of inhibition of the incorporation of uridine (rat thymocytes; product at 10^-8 M): 0%

CN(C)c1ccc([C@H]2C[C@@]3(C)[C@@H](CC[C@]3(C#CCl)OC(=O)CCC(=O)O)[C@@H]3CCC4=CC(=O)CCC4=C32)cc1 [Example 10, Sodium and 21-chloro-11β-[4-dimethylamino-phenyl]-19-nor-17α-Δ^4,9-pregnadien-3-one-20-yn-17β-yl succinate]
relative bond affinity (RBA), Androgen 0,5H (Androgen receptor): 1,9 | relative bond affinity (RBA), Androgen (Androgen receptor): 8,6 | inhibition at 1 µM (rat thymocytes; product at 10^-6 M): 78% | inhibition at 0.1 µM (rat thymocytes; product at 10^-7 M): 19% | inhibition at 0.01 µM (rat thymocytes; product at 10^-8 M): 0%

CC#C[C@]1(OC(=O)CCC(=O)O)CC[C@H]2[C@@H]3CCC4=CC(=O)CCC4=C3[C@@H](c3ccc(SC)cc3)C[C@@]21C [Example 12, Sodium and 11β-[4-methylthio-phenyl]-17α-(1-propynyl)-Δ^4,9 estradien-3-one-17β-yl succinate]
relative bond affinity (RBA), Androgen 0,5H (Androgen receptor): 0,8 | relative bond affinity (RBA), Androgen (Androgen receptor): 0,3 | inhibition at 1 µM (rat thymocytes; product at 10^-6 M): 104% | inhibition at 0.1 µM (rat thymocytes; product at 10^-7 M): 62% | inhibition at 0.01 µM (rat thymocytes; product at 10^-8 M): 8% | antiglucocorticoid activity (rat thymocytes): good
